Measured values published in patent publication US9718809B2, “Bisarylsulfonamides useful in the treatment of inflammation and cancer” (Kancera AB, priority 2011, dated 2017).
pIC50: −log10 of the molar value. Structures can show the parent of a compound that is named as a salt.

The compounds below were run on F-2,6-P2 in PANC-1 cells (assay: Quantification of F-2,6-P2 (Van Schaftingen coupled enzyme assay) in PANC-1 cells). Conditions: Homo sapiens; PANC-1 cells; read-out: IC50 based on quantification of F-2,6-P2.
Format: cell-based, human
From the text: (§1) A method for quantification of F-2,6-P2 has been described by Van Schaftingen et al. (1982) Eur. J. Biochem. 129, 191-5. This sensitive assay is based on the potent activation of pyrophosphate dependent phosphofructokinase-1 (PPi-PFK) from potato tubers by F-2,6-P2. The use of a series of coupled enzymes leads to a consumption of NADH (nicotinamide adenine dinucleotide) that can be followed spectrophotometrically (an updated protocol is available in Van Schaftingen, (1984) Methods of Enzymatic Analysis (Bergmeyer, H. U., ed.), 3rd edn., vol. 6, pp. 335-341, Verlag Chemie, Weinheim). A protocol for measurements in 96-well microtiter plate format is also available (Bruni et al., (1989) Anal. Biochem. 178, 324-6).
(§2) The levels of F-2,6-P2 have been determined using the van Shaftingen assay as described in the protocol below, in six different cancer cell lines endogenously expressing varying levels of the different isoforms of PFK-2/BPase-2 (MCF-7, PANC-1, NUGC-3, SW480, SW620 and MIA PaCa-2). All reagents were purchased from commercial sources or prepared in-house.
Cell line B (PANC-1, human pancreatic carcinoma cell line): PANC-1 cells (ATCC-CRL-1469), lot. no. 58564651. Cells were seeded at a concentration of ˜250 000 cells/mL in 100 μL growth medium (˜25 000 cells/well).
Growth medium (cell lines B-F): Dulbecco's Modified Eagle's Medium, DMEM, VWR, LONZ12-604F; 10% FBS, Invitrogen, 10270-106.
(§3) Starvation medium (cell lines A-F): DMEM/F12 without phenol red and glucose free, SVA, 991373; 0.25% FBS, Invitrogen, 10270-106.
(§4) Induction medium (cell lines A-F): DMEM/F12 without phenol red and glucose free, SVA, 991373; 0.25% FBS, Invitrogen, 10270-106 (same as starvation medium).
(§5) Cells were seeded in 96-well Corning Costar tissue culture plates (CLS3595, Sigma-Aldrich) using the concentrations specified above for the different cell lines A-F and incubated over night at 37° C. and 5% CO2. Row A in the plate was left empty and the cell lines added to rows B-H. Next day the growth medium was discarded and replaced with 100 μL starvation medium. The plates were incubated for 18 h at 37° C. and 5% CO2. After 18 h of starvation the cells were induced with 100 μL compound or control solutions. Compounds were either tested in two concentrations (50 μM and 10 μM) or in dose response curves starting from 50 μM. The final DMSO concentration in assay plates was 0.5%. Also a dose response curve of a reference inhibitor was included in row H on each plate. All compounds were tested in duplicate plates. Compounds (in 96 well CLS 3365, Sigma-Aldrich plates) were serial diluted in DMSO from 10 mM compound DMSO stock solutions with Janus (automated liquid handling workstation from PerkinElmer). Five μL were transferred to a Greiner deep well plate (736-0155, VWR) with 495 μL starvation medium. The final start concentration of compounds in the dilution plate was 100 μM, 1% DMSO. For compounds tested as single points, 10 mM compound solutions were diluted five fold in DMSO to 2 mM, followed by the transfer of 5 μL to separate dilution plates with 495 μL starvation medium. The final concentrations of compounds in these dilution plates were 100 or 20 μM, respectively, and final concentration of DMSO was 1%. The plates were incubated at 37° C. and 5% CO2 for 1 h, followed by the addition of 10 μL 20 mM D-glucose in starvation medium. Controls, with and without 1 mM glucose, were included in row B. The final assay volume was 210 μL per well. After 2 h of incubation at 37° C. and 5% CO2, the supernatants were discarded and the cells lysed by the addition of 25 μL 250 mM NaOH. The plates were incubated at 37° C. and 5% CO2 for 5 min followed by an addition of 75 μL MilliQ dH2O. The supernatants were further diluted with 210 μL MilliQ dH2O to a final concentration of 20 mM NaOH. 200 μL were transferred to NUNC 96-well plates (7322661, VWR) and the plates were sealed and stored at −20° C. until analysis. […]

| SMILES | pIC50 |
| --- | --- |
| COC(=O)c1ccc(NS(=O)(=O)c2cc(Cl)c(Cl)s2)cc1O [Example 27, Methyl 4-{[(4,5-dichloro-2-thienyl)sulfonyl]amino}-2-hydroxybenzoate] | 6.10 |
| COC(=O)c1ccc(NS(=O)(=O)c2cc3ccccc3o2)cc1O [Example 9, Methyl 4-[(1-benzofuran-2-ylsulfonyl)amino]-2-hydroxybenzoate] | 4.71 |
| COC(=O)c1ccc(NS(=O)(=O)Cc2cccc(-c3ccc4c(c3)CCO4)c2)cc1O [Example 122, Methyl 4-({[3-(2,3-dihydro-1-benzofuran-5-yl)benzyl]sulfonyl}amino)-2-hydroxybenzoate] | 5.23 |
| COC(=O)c1ccc(NS(=O)(=O)c2cc(-c3ccc4c(c3)CCO4)cc(C(F)(F)F)c2)cc1O [Example 116, Methyl 4-({[3-(2,3-dihydro-1-benzofuran-5-yl)-5-(trifluoromethyl)phenyl]sulfonyl}amino)-2-hydroxybenzoate] | 5.77 |
| O=C(OCCCN1CCOCC1)c1ccc(NS(=O)(=O)c2cc(Cl)c(Cl)s2)cc1O [Example 63, 3-Morpholin-4-ylpropyl 4-{[(4,5-dichlorothiophen-2-yl)sulfonyl]amino}-2-hydroxybenzoate trifluoroacetate] | 5.40 |
| COC(=O)c1ccc(NS(=O)(=O)Cc2ccc(-c3ccccc3O)cc2)cc1O [Example 126, Methyl 2-hydroxy-4-({[(2′-hydroxybiphenyl-4-yl)methyl]sulfonyl}amino)benzoate] | 5.85 |
| COC(=O)c1ccc(NS(=O)(=O)c2cccc(N3CCCCC3)c2)cc1O [Example 142, Methyl 2-hydroxy-4-({[3-(piperidin-1-yl)phenyl]sulfonyl}amino)benzoate] | 5.82 |
| COC(=O)c1ccc(NS(=O)(=O)c2csc3ccccc23)cc1O [Example 52, Methyl 4-[(1-benzothien-3-ylsulfonyl)amino]-2-hydroxybenzoate] | 4.97 |
| COC(=O)c1ccc(NS(=O)(=O)c2cccc(-c3ccc(C(=O)N(C)C)cc3)c2)cc1O [Example 101, Methyl 4-({[4′-(dimethylcarbamoyl)biphenyl-3-yl]sulfonyl}amino)-2-hydroxybenzoate] | 5.08 |
| COC(=O)c1ccc(NS(=O)(=O)c2cccc(-c3ccc(C(C)=O)s3)c2)cc1O [Example 95, Methyl 4-({[3-(5-acetyl-2-thienyl)phenyl]sulfonyl}amino)-2-hydroxybenzoate] | 5.77 |
| COC(=O)c1ccc(NS(=O)(=O)c2cccc(C(=O)OC(C)C)c2)cc1O [Example 137, Methyl 2-hydroxy-4-[({3-[(1-methylethoxy)carbonyl]phenyl}sulfonyl)amino]benzoate] | 4.95 |
| CCCCOC(=O)c1ccc(NS(=O)(=O)c2cc(Cl)c(Cl)s2)cc1O [Example 70, Butyl 4-{[(4,5-dichloro-2-thienyl)sulfonyl]amino}-2-hydroxybenzoate] | 6.70 |

Same assay, conditions: at 12.5-50 μM in PANC-1 cells

| SMILES | inhibition (F-2,6-P2 levels) [%] |
| --- | --- |
| COC(=O)c1ccc(NS(=O)(=O)c2cccc(OC)c2)cc1O [Example 121, Methyl 2-hydroxy-4-{[(3-methoxyphenyl)sulfonyl]amino}benzoate] | ≥ 50 |
| COC(=O)c1ccc(NS(=O)(=O)c2cnc(Cl)c(-c3cccc(F)c3)c2)cc1O [Example 83, Methyl 4-({[6-chloro-5-(3-fluorophenyl)pyridin-3-yl]sulfonyl}amino)-2-hydroxybenzoate] | ≥ 50 |
| COC(=O)c1ccc(NS(=O)(=O)c2c(C)cccc2Cl)cc1O [Example 43, Methyl 4-{[(2-chloro-6-methylphenyl)sulfonyl]amino}-2-hydroxybenzoate] | ≥ 50 |
| COC(=O)c1ccc(NS(=O)(=O)c2cccc(-c3ccc(C(F)(F)F)cc3)c2)cc1O [Example 100, Methyl 2-hydroxy-4-({[4′-(trifluoromethyl)biphenyl-3-yl]sulfonyl}amino)benzoate] | ≥ 50 |
| O=C(O)C(F)(F)F.O=C(OCCCn1ccnc1)c1ccc(NS(=O)(=O)c2cc(Cl)c(Cl)s2)cc1O [Example 64, 3-(1H-Imidazol-1-yl)propyl 4-{[(4,5-dichlorothiophen-2-yl)sulfonyl]amino}-2-hydroxybenzoate trifluoroacetate] | ≥ 50 |
| COC(=O)c1ccc(NS(=O)(=O)c2cccc(C(C)=O)c2)cc1O [Example 129, Methyl 4-{[(3-acetylphenyl)sulfonyl]amino}-2-hydroxybenzoate] | ≥ 50 |

These compounds were tested on F-2,6-P2 in NUGC-3 cells (assay: Quantification of F-2,6-P2 (Van Schaftingen coupled enzyme assay) in NUGC-3 cells). Conditions: Homo sapiens; NUGC-3 cells, under hypoxia (0.6-1% O2); read-out: IC50 based on quantification of F-2,6-P2.
Format: cell-based
From the text: as §1, §2
Cell line C (NUGC-3, human gastric cancer cell line): NUGC-3 cells (JCRB0822), lot no. 04272009. Growth medium: RPMI1640, #R8758, Sigma-Aldrich; 10% FBS, Invitrogen, 10270-106 or Dulbecco's Modified Eagle's Medium, DMEM, VWR, LONZ12-604F; 10% FBS, Invitrogen, 10270-106. Cells were seeded at a concentration of ˜350 000 cells/mL in 100 μL growth medium (˜35 000 cells/well).
as §3, §4, §5

| SMILES | pIC50 |
| --- | --- |
| Cn1c(COC(=O)c2ccc(NS(=O)(=O)c3cc(Cl)c(Cl)s3)cc2O)cnc1[N+](=O)[O-] [Example 202, (1-Methyl-2-nitro-1H-imidazol-5-yl)methyl 4-{[(4,5-dichlorothiophen-2-yl)sulfonyl]amino}-2-hydroxybenzoate] | 5.25 |

Same assay, conditions: Homo sapiens; NUGC-3 cells; read-out: IC50 based on quantification of F-2,6-P2

| SMILES | pIC50 |
| --- | --- |
| O=C(OCCCN1CCOCC1)c1ccc(NS(=O)(=O)c2cc(-c3ccc4c(c3)OCO4)c(Cl)s2)cc1O [Example 162, 3-Morpholin-4-ylpropyl 4-({[4-(1,3-benzodioxol-5-yl)-5-chloro-2-thienyl]sulfonyl}amino)-2-hydroxybenzoate trifluoroacetate] | 5.55 |
| CC(CCN1CCOCC1)OC(=O)c1ccc(NS(=O)(=O)c2cc(Cl)c(Cl)s2)cc1O (stereo not drawn) [Example 193] | 5.92 |
| COC(=O)c1ccc(NS(=O)(=O)c2cc(Cl)c(Cl)s2)cc1O [Example 27, Methyl 4-{[(4,5-dichloro-2-thienyl)sulfonyl]amino}-2-hydroxybenzoate] | 6.05 |
| COC(=O)c1ccc(NS(=O)(=O)c2cccc(-c3cc(F)ccc3F)c2)cc1O [Example 153, Methyl 4-{[(2′,5′-difluorobiphenyl-3-yl)sulfonyl]amino}-2-hydroxybenzoate] | 5.29 |
| COCC(COC)OC(=O)c1ccc(NS(=O)(=O)c2cc(Cl)cc(Cl)c2)cc1O [Example 191, 2-Methoxy-1-(methoxymethyl)ethyl 4-{[(3,5-dichlorophenyl)sulfonyl]amino}-2-hydroxybenzoate] | 5.85 |
